The target in one data set is T1, human NK1 receptor (Homo sapiens, UniProt P25103).
T1 construct: expressed in transfected cells; host or cells: CHO cells (hNK1-CHO)
The data set is described as follows: Human NK1 receptor binding assay (3H-Sar9-SP, hNK1-CHO cells). To be noted: room temperature 60 minutes. How it is done: A supernatant liquid was removed from an hNK1-CHO cell incubation flask in a confluent state, trypsin (0.25%)-EDTA (1 mmol/L) (Gibco) was added thereto and the cells were exfoliated and recovered. After they were washed with a buffer A (pH 7.5; 50 mmol/L Tris hydrochloride 50 mmol/L, 150 mmol/L NaCl and 0.02% BSA) for one time (at […] for 5 minutes), cell numbers were adjusted and re-floated on a buffer for assay {a buffer A to which 40 μg/mL bacitracin (Sigma), 4 μg/mL leupeptin (Sigma), 4 μg/mL chymostatin (Sigma) and 4 μg/mL phosphoramidon (Sigma) were added}. The hNK1-CHO cells (100 μL) were placed in a tube (TPX-12, Maruemu) in which 300 μL of the buffer for assay was charged so as to make cells 10^5 per tube, 50 μL of a hot solution (^3H-Sar^9-SP, final concentration: […]) and 50 μL of a substance to be tested were added (a system of 500 μL), stirred and made to react at room temperature for 60 minutes. After completion of the reaction, it was filtered through a GF/B filter (25 mm diameter, Whatman) which was previously dipped in 0.1% polyethyleneimine p-70 (Wako Pure Chemical), washed with the buffer A (4 mL each for three times), placed in a vial and dried at 60° C. for one night. After drying, 10 mL of a scintillator (AL-1, toluene base, Dojindo) was added thereto and dpm was measured by a liquid scintillation counter (for 5 minutes/vial).
With regard to a nonspecific binding, it was defined as the dpm when 10 μmol/L of the substance P was added instead of the substance to be tested. The experiment was conducted in duplicate and at least three experiments were repeated. IC50 value was calculated using a probit method (statistic library II, Yukms).

The nature of data set [1]: Pharmacokinetic test in blood by a single oral administration to guinea pigs. The format is in vivo. The note with it: male, Hartley, guinea pig, po, 100 mg/kg orally, plasma; for AUC(0-t): read-out: AUC 0-24 h; for Cmax: read-out: Cmax; for Tmax: read-out: Tmax; for half-life: read-out: t½ (converted). Here is the method: Male guinea pigs of a Hartley strain (SPF, Nippon SLC) were purchased and subjected to a preliminary breeding for one week and the normally grown ones were fasted for one night and used for the test. The compound of the present invention was suspended in 1 g/dL methyl cellulose solution and 100 mg/kg was orally administered in an administering dose of 5 mL/kg. After 0.5, 1, 2, 4, 8 and 24 hour(s) from the oral administration, about 0.4 mL of blood was collected from the vein of median of foreleg using a heparinized capillary. Plasma prepared by its centrifugation (at 12,000 rpm for 10 minutes) was stored at −80° C. until the measurement. Measurement of the concentration in blood was conducted by a UV-detecting HPLC method.

Structures can show the parent of a compound that is named as a salt.

One may read the IC50 as the concentration that gives 50% inhibition. A lower IC50 goes with inhibition by little substance. As usually defined, the Cmax is the peak of the concentration-time curve. The term Tmax denotes the time from dosing to the highest level.

T1 sequence (P25103 whole entry): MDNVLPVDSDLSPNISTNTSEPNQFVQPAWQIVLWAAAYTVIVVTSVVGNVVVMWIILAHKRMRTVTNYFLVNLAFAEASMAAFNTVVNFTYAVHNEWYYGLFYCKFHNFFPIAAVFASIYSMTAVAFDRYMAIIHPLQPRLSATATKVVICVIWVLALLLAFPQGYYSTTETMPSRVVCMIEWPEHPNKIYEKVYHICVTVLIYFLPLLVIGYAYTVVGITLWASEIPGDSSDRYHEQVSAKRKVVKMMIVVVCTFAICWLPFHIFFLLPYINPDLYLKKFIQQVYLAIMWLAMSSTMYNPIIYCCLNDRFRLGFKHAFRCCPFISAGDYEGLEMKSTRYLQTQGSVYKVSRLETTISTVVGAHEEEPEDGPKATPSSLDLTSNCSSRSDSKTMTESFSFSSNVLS

`O=C(NCC(COCc1cc(C(F)(F)F)cc(C(F)(F)F)c1)c1ccc(F)cc1)c1cc[n+]([O-])cc1` (single isomer, unassigned; (+)) [(+)-Compound 21] showed an IC50 on human NK1 receptor of 9 nM. For `O=C(NCC(COCc1cc(C(F)(F)F)cc(C(F)(F)F)c1)c1ccc(F)cc1)c1cc[n+]([O-])cc1` (single isomer, unassigned; (-)) [(−)-Compound 21], the IC50 on human NK1 receptor stood at 1.5 nM.

At human NK1 receptor, `Cl.O=C(NCC(COCc1cc(C(F)(F)F)cc(C(F)(F)F)c1)c1ccccc1)C1CCNCC1` (stereo not shown) [Compound 4, N-[3-(3,5-Bis(trifluoromethyl)benzyloxy)-2-phenylpropyl]piperidine-4-carboxamide hydrochloride] displayed an IC50 of 29.3 nM. Moreover, in data set [1], the AUC(0-t) amounted to 28200 ng·h/mL, the Cmax was determined as 2000 ng/mL and the Tmax came out at 8 h. Consider `O=C(NCC(COCc1cc(C(F)(F)F)cc(C(F)(F)F)c1)c1ccccc1)c1cc[n+]([O-])cc1` (stereo not shown) [Compound 20, N-[3-(3,5-Bis(trifluoromethyl)benzyloxy)-2-phenylpropyl]-1-oxyisonicotinamide], for which the IC50 on human NK1 receptor turned out to be 5.8 nM. For the same compound, in data set [1], the AUC(0-t) came out at 87300 ng·h/mL, the Cmax amounted to 10900 ng/mL, the time of peak concentration (Tmax) turned out to be 2 h and the half-life is 3.4 h. `O=C(NCC(COCc1cc(C(F)(F)F)cc(C(F)(F)F)c1)c1ccccc1)c1ccc[n+]([O-])c1` (stereo not shown) [Compound 22, N-[3-(3,5-Bis(trifluoromethyl)benzyloxy)-2-phenylpropyl]-1-oxynicotinamide] had an IC50 on human NK1 receptor of 6.4 nM. In data set [1], the AUC(0-t) was found to be 200000 ng·h/mL, the Cmax was 18300 ng/mL, the Tmax was 2 h and the half-life was 2.6 h. Compound `C[n+]1ccc(C(=O)NCC(COCc2cc(C(F)(F)F)cc(C(F)(F)F)c2)c2ccccc2)cc1` (stereo not shown) [Compound 26, 4-[3-(3,5-Bis(trifluoromethyl)benzyloxy)-2-phenylpropylcarbamoyl]-1-methylpyridinium iodide] yielded an IC50 at human NK1 receptor of 5.9 nM. The same measure, in the same setting: the value for `O=C(Cc1ccc[n+]([O-])c1)NCC(COCc1cc(C(F)(F)F)cc(C(F)(F)F)c1)c1ccccc1` (stereo not shown) [Compound 41, N-[3-(3,5-Bis(trifluoromethyl)benzyloxy)-2-phenylpropyl]-2-(1-oxypyridin-3-yl)acetamide] was 9.2 nM; that for `O=C(C=Cc1ccc[n+]([O-])c1)NCC(COCc1cc(C(F)(F)F)cc(C(F)(F)F)c1)c1ccccc1` (stereo not shown) [Compound 54, N-[3-(3,5-Bis(trifluoromethyl)benzyloxy)-2-phenylpropyl]-3-(1-oxypyridin-3-yl)acrylamide] was 8.5 nM; that for `NCCC(=O)NCC(COCc1cc(C(F)(F)F)cc(C(F)(F)F)c1)c1ccccc1` (stereo not shown) [Compound 74, 3-Amino-N-[3-(3,5-bis(trifluoromethyl)benzyloxy)-2-phenylpropyl]propionamide hydrochloride] was 33.6 nM.

On human NK1 receptor, `NCCC(=O)NCC(COCc1cc(C(F)(F)F)cc(C(F)(F)F)c1)c1ccc(F)cc1` (stereo not shown) [Compound 76, 3-Amino-N-[3-(3,5-bis(trifluoromethyl)benzyloxy)-2-(4-fluorophenyl)propyl]propionamide hydrochloride] showed an IC50 of 21 nM.

In turn, `NCCCCC(=O)NCC(COCc1cc(C(F)(F)F)cc(C(F)(F)F)c1)c1ccccc1` (stereo not shown) [Compound 78, N-[3-(3,5-Bis(trifluoromethyl)benzyloxy)-2-phenylpropyl]-5-aminopentanoicamide hydrochloride] came in with an IC50 at human NK1 receptor of 19 nM. `O=C(O)CN1CCC(C(=O)NCC(COCc2cc(C(F)(F)F)cc(C(F)(F)F)c2)c2ccccc2)CC1` (stereo not shown) [Compound 80, {4-[3-(3,5-Bis(trifluoromethyl)benzyloxy)-2-phenylpropylcarbamoyl]piperidin-1-yl}acetic acid hydrochloride]: the IC50 on human NK1 receptor worked out at 14.7 nM. `O=C(NCC(COCc1cc(C(F)(F)F)cc(C(F)(F)F)c1)c1ccccc1)NC1CCNCC1` (stereo not shown) [Compound 86, 1-[3-(3,5-Bis(trifluoromethyl)benzyloxy)-2-phenylpropyl]-3-piperidin-4-ylurea hydrochloride] gave an IC50 on human NK1 receptor of 6 nM.

Compound `NC1CCC(C(=O)NCC(COCc2cc(C(F)(F)F)cc(C(F)(F)F)c2)c2ccccc2)CC1` (stereo not shown) [Compound 88, 4-Aminocyclohexanecarboxylic acid [3-(3,5-bis(trifluoromethyl)benzyloxy)-2-phenylpropyl]amide hydrochloride] registered an IC50 on human NK1 receptor of 8.6 nM.

`O=C(CN1CCC(C(=O)O)CC1)NCC(COCc1cc(C(F)(F)F)cc(C(F)(F)F)c1)c1ccccc1` (stereo not shown) [Compound 90, 1-{[3-(3,5-Bis(trifluoromethyl)benzyloxy)-2-phenylpropylcarbamoyl]methyl}piperidine-4-carboxylic acid] yielded an IC50 at human NK1 receptor of 44 nM. Still for that read-out and setting: as for `O=C(CN1CCC(N2CCCCC2)CC1)NCC(COCc1cc(C(F)(F)F)cc(C(F)(F)F)c1)c1ccccc1` (stereo not shown) [Compound 91, N-[3-(3,5-Bis(trifluoromethyl)benzyloxy)-2-phenylpropyl]-2-[1,4′]bipiperidinyl-1′-ylacetamide dihydrochloride], the figure is 43.5 nM; as for `CN(CC(COCc1cc(C(F)(F)F)cc(C(F)(F)F)c1)c1ccccc1)C(=O)C1CCNCC1` (stereo not shown) [Compound 93, N-[3-(3,5-Bis(trifluoromethyl)benzyloxy)-2-phenylpropyl]-N-methylpiperidine-4-carboxamide hydrochloride], 42.2 nM; as for `CN(CC(COCc1cc(C(F)(F)F)cc(C(F)(F)F)c1)c1ccc(F)cc1)C(=O)C1CCNCC1` (stereo not shown) [Compound 95, N-[3-(3,5-Bis(trifluoromethyl)benzyloxy)-2-(4-fluorophenyl)propyl]-N-methylpiperidine-4-carboxamide hydrochloride], 15.4 nM. `CN1CCC(C(=O)N(C)CC(COCc2cc(C(F)(F)F)cc(C(F)(F)F)c2)c2ccccc2)CC1` (stereo not shown) [Compound 96, N-[3-(3,5-Bis(trifluoromethyl)benzyloxy)-2-phenylpropyl]-N-methyl-1-methylpiperidine-4-carboxamide hydrochloride] returned an IC50 at human NK1 receptor of 28.5 nM.

As to `CN(CC(COCc1cc(C(F)(F)F)cc(C(F)(F)F)c1)c1ccc(F)cc1)C(=O)c1ccncc1` (stereo not shown) [Compound 98, N-[3-(3,5-Bis(trifluoromethyl)benzyloxy)-2-(4-fluorophenyl)propyl]-N-methylisonicotinamide], the IC50 at human NK1 receptor is 27 nM. Regarding `CN(CC(COCc1cc(C(F)(F)F)cc(C(F)(F)F)c1)c1ccccc1)C(=O)c1cc[n+]([O-])cc1` (stereo not shown) [Compound 99, N-[3-(3,5-Bis(trifluoromethyl)benzyloxy)-2-phenylpropyl]-N-methyl-1-oxyisonicotinamide], at human NK1 receptor, the IC50 turned out to be 23.8 nM. On the same count and under the same terms, as for `CN(CC(COCc1cc(C(F)(F)F)cc(C(F)(F)F)c1)c1ccc(F)cc1)C(=O)c1ccnc(O)c1` (stereo not shown) [Compound 100, N-[3-(3,5-Bis(trifluoromethyl)benzyloxy)-2-(4-fluorophenyl)propyl]-2-hydroxy-N-methylisonicotinamide], the figure is 11.9 nM; as for `CN(CC(COCc1cc(C(F)(F)F)cc(C(F)(F)F)c1)c1ccccc1)C(=O)CCN` (stereo not shown) [Compound 102, N-[3-(3,5-Bis(trifluoromethyl)benzyloxy)-2-phenylpropyl]-N-methyl-3-aminopropionamide hydrochloride], 35.5 nM. Still for that read-out and setting: as for `CN(CC(COCc1cc(C(F)(F)F)cc(C(F)(F)F)c1)c1ccc(F)cc1)C(=O)CCN` (stereo not shown) [Compound 104, 3-Amino-N-[3-(3,5-bis(trifluoromethyl)benzyloxy)-2-(4-fluorophenyl)propyl]-N-methylpropionamide hydrochloride], the figure is 6.5 nM. Same read-out and setting: the value for `CN(CC(COCc1cc(C(F)(F)F)cc(C(F)(F)F)c1)c1ccccc1)C(=O)CCCCN` (stereo not shown) [Compound 106, 5-Aminopentanoic acid [3-(3,5-bis(trifluoromethyl)benzyloxy)-2-phenylpropyl]methylamide hydrochloride] was 30.3 nM. On to “N-[3-(3,5-Bis(trifluoromethyl)benzyloxy)-2-(4-fluorophenyl)propyl]-N-methylpiperidine-4-carboxamide hydrochloride [Compound 97]”, for which the IC50 on human NK1 receptor stood at 20.3 nM.

The values are drawn from patent publication US7939552B2, “Benzyloxypropylamine derivative” (Nippon Zoki Pharmaceutical Co., Ltd., priority 2005, dated 2011).
